Experiments:
[1] = system: transplanted tumor of human lymphoma cell U937; assay: U937 transplanted tumor in nude mice; conditions: for Tumor Volume (mm3) (d 1): d1
Protocol: (§1) U937 cells in a logarithmic growth phase were taken and subjected to a trypan blue exclusion experiment showing that the cell viability was more than 95%, then the cells were subjected to trypsinization, centrifugation, and supernatant removal. Then cell concentration was adjusted to 1×10^7/ml with matrigel, then each nude mouse was inoculated subcutaneously with 0.2 ml of cells at its right armpit and recorded as the first day of inoculation. When the tumor grows to be greater than or equal to 100 mm^3, the mice were randomly divided into 11 groups with 6 mice in each group: a model group, a cyclophosphamide group, isovaleryl spiramycin I groups with doses of 25, 50 and 100 mg/kg, isovaleryl spiramycin II groups with doses of 25, 50 and 100 mg/kg, and isovaleryl spiramycin III groups with doses of 25, 50 and 100 mg/kg. Each group was continuously administered intragastrically for 30 days with a dose of 20 ml/kg. The mice were sacrificed the next day after drug withdrawal and the indicators were tested. The long diameter and short diameter of the tumor, and the body weight of each mouse were recorded every 3 days from drug administration to nude mouse sacrifice.
(§2) The body weight of the nude mice and the long diameter (a) and short diameter (b) of the transplanted tumor were measured every 3 days, and the tumor volume (v), relative tumor volume (RTV) and relative tumor proliferation rate (T/C) are calculated respectively according to the following formulas, wherein V=a×b^2/2; RTV=V/V0 (V0 is the tumor volume before administration, V is the tumor volume before sacrifice), and T/C (%)=treatment group RTV/model control group RTV×100%.
(§3) Each mouse was weighed and sacrificed. After the tumor was completely stripped off from the body of the mouse, the non-tumor tissues such as blood stains and fat were removed to weigh the tumor and calculate the tumor growth inhibition rate. The average tumor weight of each group of mice is used as an indicator of efficacy. Tumor growth inhibition rate (%)=(1−the average tumor weight of the treatment group/the average tumor weight of the model group)×100%.

[2] = system: transplanted tumor of human renal cell adenocarcinoma cell 769-P; assay: 769-P transplanted tumor in nude mice; conditions: for Tumor Volume (mm3) (d 1): d1
Protocol: as §1, with “Then” for “U937 cells in a logarithmic growth phase were taken and subjected to a trypan blue exclusion experiment showing that the cell viability was more than 95%, then the cells were subjected to trypsinization, centrifugation, and supernatant removal. Then”, “the” for “the body”
as §2, §3

[3] = Thymus index and spleen index of H22 liver cancer tumor-bearing mice
Protocol: In the H22 liver cancer model, the mice inoculated with the tumor were randomly divided into groups with 10 mice in each group on the next day of inoculation. The groups included: a model control group, a positive drug cyclophosphamide control group (CTX, 26 mg/kg), isovaleryl spiramycin I groups with doses of 13, 26 and 52 mg/kg; isovaleryl spiramycin II groups with doses of 13, 26 and 52 mg/kg; isovaleryl spiramycin III groups with doses of 13, 26 and 52 mg/kg. Each group was continuously administered intragastrically for 7 days with a dose of 20 ml/kg.

[4] = U937, high dose (100 mg/kg in method) i.g. 30 days
[5] = U937, low dose (25 mg/kg in method) i.g. 30 days
[6] = U937, medium dose (50 mg/kg in method) i.g. 30 days
[7] = 769-P, high dose (100 mg/kg in method) i.g. 30 days
[8] = 769-P, low dose (25 mg/kg in method) i.g. 30 days
[9] = 769-P, medium dose (50 mg/kg in method) i.g. 30 days

SMILES: COC1C(OC(C)=O)CC(=O)OC(C)CC=CC=CC(OC2CCC(N(C)C)C(C)O2)C(C)CC(CC=O)C1OC1OC(C)C(OC2CC(C)(O)C(OC(=O)CC(C)C)C(C)O2)C(N(C)C)C1O (stereo not shown) [Isovaleryl spiramycin II, isovaleryl spiramycin II]
- Relative Tumor Proliferation Rate (T/C) [1, 4]: 46.09%
- tumor growth inhibition rate [1, 4]: 43.63%
- Relative Tumor Proliferation Rate (T/C) [1, 5]: 74.19%
- tumor growth inhibition rate [1, 5]: 25.61%
- tumor volume and relative tumor volume compared with the model group ([1]; U937, low, medium and high doses, P<0.05): significantly lower
- Relative Tumor Proliferation Rate (T/C) [1, 6]: 52.10%
- tumor growth inhibition rate [1, 6]: 35.44%
- Inhibition Rate (%) ([1]; U937 nude mice, 12.5 mg/kg): 25.61%
- Relative Tumor Proliferation Rate (T/C) ([1]; U937 nude mice, 12.5 mg/kg): 74.19%
- Relative Tumor Volume (RTV) ([1]; U937 nude mice, 12.5 mg/kg): 12.64 ± 5.00
- Tumor Weight ([1]; U937 nude mice, 12.5 mg/kg): 1.44 ± 0.64 g
- Tumor Volume (mm3) (d 1) ([1]; U937 nude mice, 12.5 mg/kg): 111.58 ± 23.26 mm3
- Tumor Volume (mm3) (d30) ([1]; U937 nude mice, 12.5 mg/kg): 1400.95 ± 558.82 mm3
- Inhibition Rate (%) ([1]; U937 nude mice, 25 mg/kg): 35.44%
- Relative Tumor Proliferation Rate (T/C) ([1]; U937 nude mice, 25 mg/kg): 52.10%
- Relative Tumor Volume (RTV) ([1]; U937 nude mice, 25 mg/kg): 8.88 ± 2.64
- Tumor Weight ([1]; U937 nude mice, 25 mg/kg): 1.25 ± 0.66 g
- Tumor Volume (mm3) (d 1) ([1]; U937 nude mice, 25 mg/kg): 120.21 ± 24.68 mm3
- Tumor Volume (mm3) (d30) ([1]; U937 nude mice, 25 mg/kg): 1117.59 ± 565.29 mm3
- Inhibition Rate (%) ([1]; U937 nude mice, 50 mg/kg): 43.63%
- Relative Tumor Proliferation Rate (T/C) ([1]; U937 nude mice, 50 mg/kg): 46.09%
- Relative Tumor Volume (RTV) ([1]; U937 nude mice, 50 mg/kg): 7.85 ± 3.27
- Tumor Weight ([1]; U937 nude mice, 50 mg/kg): 1.09 ± 0.62 g
- Tumor Volume (mm3) (d 1) ([1]; U937 nude mice, 50 mg/kg): 111.50 ± 7.03 mm3
- Tumor Volume (mm3) (d30) ([1]; U937 nude mice, 50 mg/kg): 885.75 ± 418.53 mm3
- mouse weight compared with the model group ([1]; mouse, in vivo): no significant changes
- Body Weight (g) (d1) ([1]; mouse, in vivo, 12.5 mg/kg): 21.10 ± 0.64 g
- Body Weight (g) (d30) ([1]; mouse, in vivo, 12.5 mg/kg): 20.97 ± 0.74 g
- Body Weight (g) (d1) ([1]; mouse, in vivo, 25 mg/kg): 21.05 ± 0.30 g
- Body Weight (g) (d30) ([1]; mouse, in vivo, 25 mg/kg): 21.03 ± 0.632 g
- Body Weight (g) (d1) ([1]; mouse, in vivo, 50 mg/kg): 20.80 ± 0.51 g
- Body Weight (g) (d30) ([1]; mouse, in vivo, 50 mg/kg): 21.22 ± 0.51 g
- Inhibition Rate (%) ([2]; 769-P nude mice, 25 mg/kg): 38.29%
- Relative Tumor Proliferation Rate (T/C) ([2]; 769-P nude mice, 25 mg/kg): 68.22%
- Relative Tumor Volume (RTV) ([2]; 769-P nude mice, 25 mg/kg): 12.59 ± 5.32
- Tumor Weight ([2]; 769-P nude mice, 25 mg/kg): 1.27 ± 0.42 g
- Tumor Volume (mm3) (d 1) ([2]; 769-P nude mice, 25 mg/kg): 162.50 ± 59.24 mm3
- Tumor Volume (mm3) (d30) ([2]; 769-P nude mice, 25 mg/kg): 2045.85 ± 301.35 mm3
- Inhibition Rate (%) ([2]; 769-P nude mice, 50 mg/kg): 47.61%
- Relative Tumor Proliferation Rate (T/C) ([2]; 769-P nude mice, 50 mg/kg): 42.64%
- Relative Tumor Volume (RTV) ([2]; 769-P nude mice, 50 mg/kg): 7.87 ± 2.29
- Tumor Weight ([2]; 769-P nude mice, 50 mg/kg): 1.3 ± 0.23 g
- Tumor Volume (mm3) (d 1) ([2]; 769-P nude mice, 50 mg/kg): 193.10 ± 35.41 mm3
- Tumor Volume (mm3) (d30) ([2]; 769-P nude mice, 50 mg/kg): 1519.68 ± 239.38 mm3
- Inhibition Rate (%) ([2]; 769-P nude mice, 100 mg/kg): 61.79%
- Relative Tumor Proliferation Rate (T/C) ([2]; 769-P nude mice, 100 mg/kg): 34.76%
- Relative Tumor Volume (RTV) ([2]; 769-P nude mice, 100 mg/kg): 6.42 ± 0.99
- Tumor Weight ([2]; 769-P nude mice, 100 mg/kg): 0.79 ± 0.06 g
- Tumor Volume (mm3) (d 1) ([2]; 769-P nude mice, 100 mg/kg): 109.14 ± 10.13 mm3
- Tumor Volume (mm3) (d30) ([2]; 769-P nude mice, 100 mg/kg): 700.14 ± 100.08 mm3
- Relative Tumor Proliferation Rate (T/C) [2, 7]: 34.76%
- tumor growth inhibition rate [2, 7]: 61.79%
- Relative Tumor Proliferation Rate (T/C) [2, 8]: 68.22%
- tumor growth inhibition rate [2, 8]: 38.29%
- tumor volume and relative tumor volume compared with the model group ([2]; 769-P, low, medium and high doses, P<0.05): significantly lower
- Relative Tumor Proliferation Rate (T/C) [2, 9]: 42.64%
- tumor growth inhibition rate [2, 9]: 47.61%
- mouse weight compared with the model group ([2]; mouse, in vivo): no significant changes
- Body Weight (g) (d1) ([2]; mouse, in vivo, 25 mg/kg): 22.17 ± 1.47 g
- Body Weight (g) (d30) ([2]; mouse, in vivo, 25 mg/kg): 22.05 ± 0.71 g
- Body Weight (g) (d1) ([2]; mouse, in vivo, 50 mg/kg): 22.07 ± 1.52 g
- Body Weight (g) (d30) ([2]; mouse, in vivo, 50 mg/kg): 22.42 ± 0.54 g
- Body Weight (g) (d1) ([2]; mouse, in vivo, 100 mg/kg): 21.96 ± 1.19 g
- Body Weight (g) (d30) ([2]; mouse, in vivo, 100 mg/kg): 22.33 ± 0.41 g
- Spleen Index (%) ([3]; dose 13 mg/kg): 0.59 ± 0.24%
- Thymus Index (%) ([3]; dose 13 mg/kg): 0.12 ± 0.05%
- Spleen Index (%) ([3]; dose 26 mg/kg): 0.68 ± 0.24%
- Thymus Index (%) ([3]; dose 26 mg/kg): 0.16 ± 0.03%
- Spleen Index (%) ([3]; dose 52 mg/kg): 0.64 ± 0.17%
- Thymus Index (%) ([3]; dose 52 mg/kg): 0.17 ± 0.10%

Reference: US20200163984A1, “USE OF ISOVALERYL SPIRAMYCIN I, II AND/OR III IN MANUFACTURING MEDICAMENT FOR TREATING AND/OR PREVENTING TUMOR, AND MEDICAMENT” (SHENYANG FUYANG PHARMACEUTICAL TECHNOLOGY CO., LTD., priority 2017, published 2020)
